Systolic blood pressure data for one compound are collected here from patent publication US9132104B2, “Fortification of nutritional products with olive extracts containing hydroxytyrosol and hydroxytyrosol fortified nutritional products” (PROBELTE PHARMA S.A., priority 2007, dated 2015).

This experiment concerns male Sprage Dawley rats. In words: L-NAME induced hypertension model, arterial blood pressure by tail-cuff method (Example 11). Conditions: rat, L-NAME 40 mg/Kg in drinking water, oral gavage 100 mg/Kg (group 6, positive control). The format is in vivo.

Description: Thirty-six male Sprage Dawley rats (weight aprox. 200 at the beginning of the experiment) were obtained from Harlan Interfauna Iberica SA (Barcelona, Spain) and maintained during all the experiment in the installations of the animalary service at the University of Murcia. The animals were randomly distributed into six experimental groups of 6 rats each one, housed under standard conditions of lighting (day/night cycles of 12 h), temperature (22±2° C.) and humidity (60%).
During the setting period and the experimental periods, rats were feed on a solid standard diet for rats (Panlab). Drinking water and food were available ad libitum. After an setting period of 7 days, treatments according the experimental design were started.
In order to determine the effect of fortified extra virgin olive oil (evoo added with the olive extract according to the present invention) N-nitro-L-arginine-methylester (L-NAME) induced hypertension model was used.
Arterial blood pressure was measured with a periodicity according the above cronogramme, by the tail-cuff method. Before the measurement, rats were kept at 37° C. for 10 min to make the pulsations of the tail artery detectable. […] The arterial blood pressure measurements were performed at the same time of the day in order to avoid any influence of the circadian cycle.

Turning to `C[C@H](CS)C(=O)N1CCC[C@H]1C(=O)O` [Captopril], the systolic blood pressure result is listed as “significant reduction of the blood pressure values”.
